Measured values published in patent US20100120775A1, “Farnesoid X Receptor Agonists” (SMITHKLINE BEECHAM CORPORATION, priority 2006, published 2010).

Target: T1, Human FXRα Ligand Binding Domain (Homo sapiens, UniProt Q96RI1)
T1 construct: polyhistidine (pRSET-A vector) (N); made in house; host or cells: E. coli BL21 (DE3), pRSET-A vector
T1 sequence (Q96RI1 237-472 isoform Q96RI1-2): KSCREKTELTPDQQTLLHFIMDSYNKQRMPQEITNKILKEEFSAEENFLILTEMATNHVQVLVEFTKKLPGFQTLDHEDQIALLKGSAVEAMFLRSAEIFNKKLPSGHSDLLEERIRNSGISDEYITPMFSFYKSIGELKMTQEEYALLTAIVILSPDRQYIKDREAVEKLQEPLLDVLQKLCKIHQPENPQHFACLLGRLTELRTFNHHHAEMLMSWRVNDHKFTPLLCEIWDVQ
Experiment: FXR Cofactor Binding Assay (FXR LBD / SRC-1 peptide, time resolved fluorescence)
Conditions: FXRα LBD with biotinylated SRC-1 (LCD2, 676-700) peptide; for EC50: read-out: Activity (pEC50) (converted)
Source text: Determination of a ligand mediated cofactor peptide interaction to quantify ligand binding to the nuclear receptor Farnesoid X Receptor (FXR). The method measures the ability of putative ligands to modulate the interaction between the purified bacterial expressed FXRα ligand binding domain (LBD) and a synthetic biotinylated peptide based on residues 676-700 of steroid receptor coactivator-1 (SRC-1) (LXXLL-containing domain-2 where L is the amino acid leucine and X indicates any other amino acid (LCD2), 676-700). The sequence of the SRC-1 peptide used is as published in Iannone, M. A., et al., 2001 Cytometry 44:326-337 where the N-terminus was biotinylated (B) and the C-terminus was amidated. Detection of the associated complex was measured by time resolved fluorescence (TRF). The purified LBD of FXR was labeled with biotin then mixed with stoichiometric amounts of allophycocyanin (APC) labeled streptavidin (Molecular Probes). The biotinylated peptide was then mixed with a ½ stoichiometric amount of europium labeled streptavidin (Wallac Inc). Each was then blocked with a 5 fold excess of biotin and allowed to equilibrate for 15 min. Equimolar amounts of receptor and peptide were mixed together and were allowed to equilibrate for at least 30 min prior to the addition to either a variable or constant concentrations of the sample for which the affinity is to be determined. After equilibration, the time-resolved fluorescent signal was quantitated using a fluorescent plate reader. The affinity of the test compound was estimated from a plot of fluorescence versus concentration of test compound added.
A basal level of FXR: peptide formation is observed in the absence of added ligand. Ligands that promote the complex formation induce a concentration-dependent increase in time-resolved fluorescent signal. Compounds which bind equally well to both monomeric FXR and to the FXR: peptide complex would be expected to give no change in signal, whereas ligands which bind preferentially to the monomeric receptor would be expected to induce a concentration-dependent decrease in the observed signal.
Human FXRα Ligand Binding Domain (FXRα LBD) was expressed in E. coli strain BL21 (DE3) as an amino-terminal polyhistidine tagged fusion protein. Expression was under the control of an isopropyl-13-D-thiogalactopyranoside (IPTG) inducible T7 promoter. DNA encoding this recombinant protein is subcloned into the pRSET-A expression vector (Invitrogen). The coding sequence of Human FXRα LBD was derived from Genbank accession number U 68233 (amino acids 237 to 472).
Routinely, 30-40 g cell paste (equivalent to 2-3 liters of the fermentation batch) was resuspended in 200-250 mL Tris buffered saline (TBS), pH 7.2 (25 mM Tris-hydroxymethylamino methane (Tris), 150 mM sodium chloride). Cells were lysed by passing 3 times through a French Press and cell debris was removed by centrifugation (30 minutes, 20,000×gravity, 4° C.). The cleared supernatant was filtered through course pre-filters, and TBS, pH 7.2, 500 mM imidazole was added to obtain a final imidazole concentration of 50 mM. This lysate was loaded onto a column (6×8 cm) packed with Sepharose [Ni^|| charged]Chelation resin (Pharmacia) and pre-equilibrated with TBS pH 7.2/50 mM imidazole. After washing to baseline absorbance with equilibration buffer, the column was washed with one column volume of TBS pH 7.2 containing 90 mM imidazole. FXRα LBD was eluted directly with 365 mM imidazole. Column fractions were pooled and dialyzed against TBS, pH 7.2, containing 0.5 mM EDTA and 5 mM DTT. The dialyzed protein sample was concentrated using Centri-prep 10 K (Amicon) and subjected to size exclusion, using a column (3×90 cm) packed with Sepharose S-75 resin (Pharmacia) pre-equilibrated with TBS, pH 7.2, containing 0.5 mM ethylene diamine tetraacetic acid (EDTA) and 5 mM dithiothreitol (DTT). […]

| EC50 | Compound | Activity (pEC50) |
| --- | --- | --- |
| 102 to 1000 nM | CC(C)c1onc(-c2c(Cl)cccc2Cl)c1COc1ccc(-c2ccc3cc(C(=O)O)cnc3c2)cc1 [Example 2, 7-[4-({[3-(2,6-Dichlorophenyl)-5-(1-methylethyl)-4-isoxazolyl]methyl}oxy)phenyl]-3-quinolinecarboxylic acid] |  |
| 102 to 1000 nM | Cc1cccc(C)c1OCc1noc(C2CCC2)c1COc1ccc(-c2ccc3cc(C(=O)O)ncc3c2)cc1 [Example 17, 7-(4-{[(5-Cyclobutyl-3-{[(2,6-dimethylphenyl)oxy]methyl}-4-isoxazolyl)methyl]oxy}phenyl)-3-isoquinolinecarboxylic acid] |  |
| 102 to 1000 nM | CC[C@H](C)c1onc(-c2c(Cl)cccc2Cl)c1COc1ccc(-c2ccc3nc(C(=O)O)ccc3c2)cc1 [Example 13, 6-{4-[({3-(2,6-Dichlorophenyl)-5-[(1S)-1-methylpropyl]-4-isoxazolyl}methyl)oxy]phenyl}-2-quinolinecarboxylic acid] |  |
| 102 to 1000 nM | O=C(O)c1ccc2cc(-c3ccc(OCc4c(C5CCCC5)noc4C4CCCC4)cc3)ccc2n1 [Example 26, 6-(4-{[(3,5-Dicyclopentyl-4-isoxazolyl)methyl]oxy}phenyl)-2-quinolinecarboxylic acid] |  |
| 102 to 1000 nM | CC(C)c1onc(COc2c(Cl)cccc2Cl)c1COc1ccc(-c2ccc3nc(C(=O)O)ccc3c2)cc1 [Example 20, 6-[4-({[3-{[(2,6-Dichlorophenyl)oxy]methyl}-5-(1-methylethyl)-4-isoxazolyl]methyl}oxy)phenyl]-2-quinolinecarboxylic acid] |  |
| 102 to 1000 nM | Cc1nc(C(=O)O)nc2ccc(-c3ccc(OCc4c(-c5c(Cl)cccc5Cl)noc4C(C)C)cc3)cc12 [Example 37, 6-[4-({[3-(2,6-Dichlorophenyl)-5-(1-methylethyl)-4-isoxazolyl]methyl}oxy)phenyl]-4-methyl-2-quinazolinecarboxylic acid] |  |
| 102 to 1000 nM | Cc1ccnc(C)c1-c1noc(C(C)C)c1COc1ccc(-c2ccc3nc(C(=O)O)ccc3c2)cc1 [Example 29, 6-[4-({[3-(2,4-Dimethyl-3-pyridinyl)-5-(1-methylethyl)-4-isoxazolyl]methyl}oxy)phenyl]-2-quinolinecarboxylic acid] |  |
| 102 to 1000 nM | Cc1cc(-c2ccc3nc(C(=O)O)ccc3c2)ccc1OCc1c(-c2c(Cl)cccc2Cl)noc1C(C)C [Example 32, 6-[4-({[3-(2,6-Dichlorophenyl)-5-(1-methylethyl)-4-isoxazolyl]methyl}oxy)-3-methylphenyl]-2-quinolinecarboxylic acid] |  |
| 102 to 1000 nM | CC(C)c1onc(-c2c(Cl)ccnc2Cl)c1COc1ccc(-c2ccc3nc(C(=O)O)ccc3c2)cc1 [Example 28, 6-[4-({[3-(2,4-Dichloro-3-pyridinyl)-5-(1-methylethyl)-4-isoxazolyl]methyl}oxy)phenyl]-2-quinolinecarboxylic acid] |  |
| 102 to 1000 nM | CC(C)c1onc(CSc2c(Cl)cccc2Cl)c1COc1ccc(-c2ccc3nc(C(=O)O)ccc3c2)cc1 [Example 22, 6-[4-({[3-{[(2,6-Dichlorophenyl)thio]methyl}-5-(1-methylethyl)-4-isoxazolyl]methyl}oxy)phenyl]-2-quinolinecarboxylic acid] |  |
| 102 to 1000 nM | CC(C)c1onc(-c2c(Cl)cccc2Cl)c1CSc1ccc(-c2ccc3nc(C(=O)O)ccc3c2)cc1 [Example 38, 6-[4-({[3-(2,6-Dichlorophenyl)-5-(1-methylethyl)-4-isoxazolyl]methyl}thio)phenyl]-2-quinolinecarboxylic acid] |  |
| 102 to 1000 nM | O=C(O)c1cc2ccc(-c3ccc(OCc4c(-c5c(Cl)cncc5Cl)noc4C4CCC4)cc3)cc2cn1 [Example 9, 7-[4-({[5-Cyclobutyl-3-(3,5-dichloro-4-pyridinyl)-4-isoxazolyl]methyl}oxy)phenyl]-3-isoquinolinecarboxylic acid] |  |
| 102 to 1000 nM | CC(C)c1onc(-c2c(Cl)cccc2Cl)c1COc1ccc(-c2ccc3c(C(=O)O)cc(C(=O)O)nc3c2)cc1 [Example 3, 7-[4-({[3-(2,6-Dichlorophenyl)-5-(1-methylethyl)-4-isoxazolyl]methyl}oxy)phenyl]-2,4-quinolinedicarboxylic acid] |  |
| 102 to 1000 nM | CC(C)c1onc(CNc2c(Cl)cccc2Cl)c1COc1ccc(-c2ccc3nc(C(=O)O)ccc3c2)cc1 [Example 21, 6-[4-({[3-{[(2,6-Dichlorophenyl)amino]methyl}-5-(1-methylethyl)-4-isoxazolyl]methyl}oxy)phenyl]-2-quinolinecarboxylic acid] |  |
|  | CC(C)c1onc(-c2c(Cl)cccc2Cl)c1COc1ccc(-c2ccc3nc(C(=O)O)ccc3c2)cc1 [Example 1h, Potassium 6-[4-({[3-(2,6-Dichlorophenyl)-5-(1-methylethyl)-4-isoxazolyl]methyl}oxy)phenyl]-2-quinolinecarboxylic Acid] | ++ (++ indicates a pEC50 6-6.99) |
| 102 to 1000 nM | CC(C)c1onc(-c2c(Cl)cccc2Cl)c1COc1ccc(-c2ccc3nc(C(=O)O)cnc3c2)cc1 [Example 39, 6-[4-({[3-(2,6-Dichlorophenyl)-5-(1-methylethyl)-4-isoxazolyl]methyl}oxy)phenyl]-2-quinoxalinecarboxylic acid] |  |
| 102 to 1000 nM | Cc1cc(OCc2c(-c3c(Cl)cccc3Cl)noc2C(C)C)ccc1-c1ccc2nc(C(=O)O)ccc2c1 [Example 33, 6-[4-({[3-(2,6-Dichlorophenyl)-5-(1-methylethyl)-4-isoxazolyl]methyl}oxy)-2-methylphenyl]-2-quinolinecarboxylic acid] |  |
| 102 to 1000 nM | O=C(O)c1ccc2cc(-c3ccc(OCc4c(-c5c(Cl)cccc5Cl)noc4C4CC4)cc3)ccc2n1 [Example 11, 6-[4-({[5-Cyclopropyl-3-(2,6-dichlorophenyl)-4-isoxazolyl]methyl}oxy)phenyl]-2-quinolinecarboxylic acid] |  |
| 102 to 1000 nM | CC[C@@H](C)c1onc(-c2c(Cl)cccc2Cl)c1COc1ccc(-c2ccc3nc(C(=O)O)ccc3c2)cc1 [Example 14, 6-{4-[({3-(2,6-Dichlorophenyl)-5-[(1R)-1-methylpropyl]-4-isoxazolyl}methyl)oxy]phenyl}-2-quinolinecarboxylic acid] |  |
| 102 to 1000 nM | Cc1cccc(C)c1OCc1noc(C(C)C)c1COc1ccc(-c2ccc3nc(C(=O)O)ccc3c2)cc1 [Example 18, 6-[4-({[3-{[(2,6-Dimethylphenyl)oxy]methyl}-5-(1-methylethyl)-4-isoxazolyl]methyl}oxy)phenyl]-2-quinolinecarboxylic acid] |  |
| < 100 nM | Cc1cc(C(=O)O)nc2ccc(-c3ccc(OCc4c(-c5c(Cl)cccc5Cl)noc4C(C)C)cc3)cc12 [Example 34, 6-[4-({[3-(2,6-Dichlorophenyl)-5-(1-methylethyl)-4-isoxazolyl]methyl}oxy)phenyl]-4-methyl-2-quinolinecarboxylic acid] |  |
| 102 to 1000 nM | Cc1cccc(C)c1OCc1noc(C(C)C)c1COc1ccc(-c2ccc3cc(C(=O)O)ncc3c2)cc1 [Example 16, 7-[4-({[3-{[(2,6-Dimethylphenyl)oxy]methyl}-5-(1-methylethyl)-4-isoxazolyl]methyl}oxy)phenyl]-3-isoquinolinecarboxylic acid] |  |

| Compound | EC50 | Activity (pEC50) |
| --- | --- | --- |
| CC(C)c1onc(-c2c(Cl)cccc2Cl)c1COc1ccc(-c2ccc3nc(C(=O)O)ccc3c2)cc1 [Example 1g, 6-[4-({[3-(2,6-Dichlorophenyl)-5-(1-methylethyl)-4-isoxazolyl]methyl}oxy)phenyl]-2-quinolinecarboxylic acid] | 102 to 1000 nM |  |
